The values that follow come from patent US20180044306A1, “1,3,4-THIADIAZOL-2-YL-BENZAMIDE DERIVATIVES AS INHIBITORS OF THE WNT SIGNALLING PATHWAY” (Bayer Pharma Aktiengesellschaft, priority 2015, published 2018).

The test system of assay [1] is constitutive active colorectal cancer cell (CRC) Wnt pathway (HCT116-TOP). Description: Cellular reporter assay, HCT116 Super TopFlash (TOP), constitutive active Wnt pathway. The format is cell-based. Conditions: Homo sapiens, HCT-116; HCT116 Super TopFlash reporter cells, luciferase expression, 36 hours incubation, dilution series 50 μM to 15 nM. On the procedure:
In order to discover and characterize small molecules which inhibit the constitutive active colorectal cancer cell (CRC) Wnt pathway, a cellular reporter assay was employed. The corresponding assay cell was generated by transfection of the colorectal cancer cell line HCT116 (ATCC, #CCL-247) with the Super TopFlash vector (Morin, Science 275, 1997, 1787-1790; Molenaar et al., Cell 86 (3), 1996, 391-399). The HCT116 cell line is cultivated at 37° C. and 5% CO2 in DMEM/F-12 (Life Technologies, #11320-074), supplemented with 2 mM glutamine, 20 mM HEPES, 1.4 mM pyruvate, 0.15% Na-bicarbonate and 10% foetal bovine serum (GIBCO, #10270), this cancer cell line is pathophysiological relevant since it carries a deletion of position S45 in the β-catenin gene, leading to constitutive active Wnt signaling. Stable transfectants were generated by cotransfection with pcDNA3 and selection of stable transfected cells with 1 mg/ml G418.
(§1) In preparation of the assay, the two cell lines were plated 24 hours before at 10000 cells per well of a 384 micro titre plate (MTP) in 30 μL growth medium. Selective inhibitory activity for small molecules on the mutated Wnt pathway was determined after parallel incubation of both (TOP and FOP) HCT116 reporter cell lines with a compound dilution series from 50 μM to 15 nM in steps of 3.16-fold dilutions in CAFTY buffer (130 mM NaCI, 5 mM KCI, 20 mM HEPES, 1 mM MgCl2, 5 mM NaHCO3, pH 7.4) containing 2 mM Ca^2+ and 0.01% BSA. The compounds were thereby serially prediluted in 100% DMSO and thereafter in addition 50 fold into the CAFTY compound dilution buffer (described above). From this dilution 10 μL were added to the cells in 30 μL growth medium and incubated for 36 hours at 37° C. and 5% CO2. Thereafter luciferase assay buffer (1:1 mixture of luciferase substrate buffer (20 mM Tricine, 2.67 mM MgSO4, 0.1 mM EDTA, 4 mM DTT, 270 μM Coenzyme A, 470 μM Luciferin, 530 μM ATP, ph adjusted to pH 7.8 with a sufficient volume of 5M NaOH) and Triton buffer (30 mL Triton X-100, 115 mL glycerol, 308 mg Dithiothreitol, 4.45 g Na2HPO4. 2 H2O, 3.03 g TRIS HCl, ad 1I H2O, pH 7.8) was added as equal volume to the compound solution on the cells to determine luciferase expression as a measure of Wnt signaling activity in a luminometer.
(In a reporter assay the amount or activity of a reporter protein is the signal.)

Assay [2] concerns HCT116-FOP. Nature of the assay: Control reporter assay, HCT116 cells with FOP control vector (non-functional TCF elements). The format is cell-based. Conditions: Homo sapiens, HCT-116, luciferase expression, 36 hours incubation, dilution series 50 μM to 15 nM, read-out: HCT116-FOP IC50 [M] mol/L]. Here is the method: In a parallel approach, HCT116 cells were cotransfected with the FOP control vector and pcDNA3. The FOP vector is identical to the TOP construct, but it contains instead of functional TCF elements a randomized, non-functional sequence. For this transfection a stable transfected cell line was generated as well.
as §1

As for `CN1CCN(CC(=O)Nc2cc(C(=O)Nc3nnc(N4CCCCC4)s3)ccc2OC(F)(F)F)CC1` [Example 1, 3-{[(4-methylpiperazin-1-yl)pacetyl]amino}-N-[5-(piperidin-1-yl)-1,3,4-thiadiazol-2-yl]-4-(trifluoromethoxy)benzamide], the IC50 in assay [1] is 0.36 µM; in assay [2] it was not below 5e-05 M.
As to `CN1CCN(CC(=O)Nc2cc(C(=O)Nc3nnc(N4CCN(C(=O)OC(C)(C)C)CC4)s3)ccc2OC(F)(F)F)CC1` [Example 2], the IC50 in assay [1] is 0.0415 µM; in assay [2], not below 5e-05 M.
As to `CC(C)(C)OC(=O)N1CCN(c2nnc(NC(=O)c3ccc(OC(F)(F)F)c(NC(=O)CN4CCOCC4)c3)s2)CC1` [Example 3, tert-butyl 4-[5-({3-[(morpholin-4-ylacetyl)amino]-4-(trifluoromethoxy)benzoyl}amino)-1,3,4-thiadiazol-2-yl]piperazine-1-carboxylate], the figures for the IC50 in assay [1] and in assay [2] were 0.086 µM and not below 5e-05 M, respectively.
On the same counts, the results for `CN1CCN(CC(=O)Nc2cc(C(=O)Nc3nnc(N4CCCC4)s3)ccc2OC(F)(F)F)CC1` [Example 4, 3-{[(4-methylpiperazin-1-yl)pacetyl]amino}-N-[5-(pyrrolidin-1-yl)-1,3,4-thiadiazol-2-yl]-4-(trifluoromethoxy)benzamide] are 0.492 µM and not below 5e-05 M.
For the compound `CN1CCN(CC(=O)Nc2cc(C(=O)Nc3nnc(C4CCCCC4)s3)ccc2OC(F)(F)F)CC1` [Example 5, N-(5-cyclohexyl-1,3,4-thiadiazol-2-yl)-3-{[(4-methylpiperazin-1-yl)pacetyl]amino}-4-(trifluoromethoxy)benzamide], the IC50 in assay [1] was 0.27 µM; in assay [2] it was not below 5e-05 M.
In the same order, the values of `COC(=O)N1CCN(c2nnc(NC(=O)c3ccc(OC(F)(F)F)c(NC(=O)CN4CCN(C)CC4)c3)s2)CC1` [Example 6, methyl 4-(5-{[3-{[(4-methylpiperazin-1-yl)pacetyl]amino}-4-(trifluoromethoxy)benzoyl]amino}-1,3,4-thiadiazol-2-yl)ppiperazine-1-carboxylate] are 0.0655 µM and 4.65e-05 M.
In the same order, the values of `CC1CCN(c2nnc(NC(=O)c3ccc(OC(F)(F)F)c(NC(=O)CN4CCN(C)CC4)c3)s2)CC1` [Example 7] are 0.11 µM and not below 5e-05 M.
Turning to `CN1CCN(CC(=O)Nc2cc(C(=O)Nc3nnc(N4CCC(C)(O)CC4)s3)ccc2OC(F)(F)F)CC1` [Example 8, N-[5-(4-hydroxy-4-methylpiperidin-1-yl)-1,3,4-thiadiazol-2-yl]-3-{[(4-methylpiperazin-1-yl)pacetyl]amino}-4-(trifluoromethoxy)benzamide], the values for the IC50 in assay [1] and in assay [2] were 0.655 µM and not below 5e-05 M, respectively.
For the compound `CN1CCN(CC(=O)Nc2cc(C(=O)Nc3nnc(N4CCN(C(=O)C5CC5)CC4)s3)ccc2OC(F)(F)F)CC1` [Example 9], the IC50 was 0.83 µM in assay [1] and 1.8e-05 M in assay [2].
On the same counts, the results for `CC(C)(O)C1CCN(c2nnc(NC(=O)c3ccc(OC(F)(F)F)c(NC(=O)CN4CCOCC4)c3)s2)CC1` [Example 10] are 0.84 µM and not below 5e-05 M.
`COC1CCN(c2nnc(NC(=O)c3ccc(OC(F)(F)F)c(NC(=O)CN4CCN(C)CC4)c3)s2)CC1` [Example 11, N-{5-(4-methoxypiperidin-1-yl)-1,3,4-thiadiazol-2-yl]-3-{[(4-methylpiperazin-1-yl)acetyl]amino}-4-(trifluoromethoxy)benzamide]: the IC50 in assay [1] was 0.22 µM; in assay [2], not below 5e-05 M.
Consider `CN1CCN(CC(=O)Nc2cc(C(=O)Nc3nnc(N4CCC(C)(C)CC4)s3)ccc2OC(F)(F)F)CC1` [Example 12, 4-(2-{[5-{[5-(4,4-dimethylpiperidin-1-yl)-1,3,4-thiadiazol-2-yl]carbamoyl}-2-(trifluoromethoxy)phenyl]amino}-2-oxoethyl)-1-methylpiperazin-1-ium hexafluorophosphate], for which the IC50 in assay [1] amounted to 0.26 µM; in assay [2], 1.5e-05 M.
Regarding `CCOC(=O)N1CCN(c2nnc(NC(=O)c3ccc(OC(F)(F)F)c(NC(=O)CN4CCOCC4)c3)s2)CC1` [Example 13, ethyl 4-[5-({3-[(morpholin-4-yl-acetyl)amino]-4-(trifluoromethoxy)benzoyl}-amino)-1,3,4-thiadiazol-2-yl]piperazine-1-carboxylate], the IC50 in assay [1] is 1.4 µM; in assay [2], not below 5e-05 M.
On the same counts, the results for `CN1CCN(CC(=O)Nc2cc(C(=O)Nc3nnc(N4CCC(O)CC4)s3)ccc2OC(F)(F)F)CC1` [Example 14, N-[5-(4-hydroxypiperidin-1-yl)-1,3,4-thiadiazol-2-yl]-3-{[(4-methylpiperazin-1-yl)acetyl]amino}-4-(trifluoromethoxy)benzamide] are 1.45 µM and not below 5e-05 M.
On the same counts, the results for `CN(C)S(=O)(=O)N1CCN(c2nnc(NC(=O)c3ccc(OC(F)(F)F)c(NC(=O)CN4CCOCC4)c3)s2)CC1` [Example 15, N-{5-[4-(dimethylsulfamoyl)-piperazin-1-yl]-1,3,4-thiadiazol-2-yl}-3-[(morpholin-4-ylacetyl)-amino]-4-(trifluoromethoxy) benzamide] are 1.99 µM and not below 5e-05 M.
On the same counts, the results for `CN1CCN(CC(=O)Nc2cc(C(=O)Nc3nnc(N4CCN(C(=O)N(C)C)CC4)s3)ccc2OC(F)(F)F)CC1` [Example 16, N,N-dimethyl-4-(5-{[3-{[(4-methylpiperazin-1-yl)acetyl]-amino}-4-(trifluoromethoxy)-benzoyl]amino}-1,3,4-thiadiazol-2-yl)piperazine-1-carboxamide] are 2.1 µM and not below 5e-05 M.
As for `CCOC(=O)N1CCN(c2nnc(NC(=O)c3ccc(OC(F)(F)F)c(NC(=O)CN4CCN(C)CC4)c3)s2)CC1` [Example 17, ethyl 4-(5-{[3-{[(4-methylpiperazin-1-yl)acetyl]-amino}-4-(trifluoromethoxy)-benzoyl]amino}-1,3,4-thiadiazol-2-yl)piperazine-1-carboxylate], the results for the IC50 in assay [1] and in assay [2] were 2.85 µM and 4.1e-05 M, respectively.
In the same order, the values of `CC(=O)N1CCN(c2nnc(NC(=O)c3ccc(OC(F)(F)F)c(NC(=O)CN4CCN(C)CC4)c3)s2)CC1` [Example 18, N-[5-(4-acetylpiperazin-1-yl)-1,3,4-thiadiazol-2-yl]-3-{[(4-methylpiperazin-1-yl)-acetyl]amino}-4-(trifluoromethoxy)benzamide] are 3.15 µM and not below 5e-05 M.
With `CN1CCN(CC(=O)Nc2cc(C(=O)Nc3nnc(N4CCN(S(=O)(=O)N(C)C)CC4)s3)ccc2OC(F)(F)F)CC1` [Example 19, N-{5-[4-(dimethylsulfamoyl)-piperazin-1-yl]-1,3,4-thiadiazol-2-yl}-3-{[(4-methylpiperazin-1-yl)acetyl]-amino}-4-(trifluoromethoxy)-benzamide], the values for the IC50 in assay [1] and in assay [2] were 3.8 µM and not below 5e-05 M, respectively.
Take `O=C(CN1CCOCC1)Nc1cc(C(=O)Nc2nnc(N3CCN(C(=O)C4CC4)CC3)s2)ccc1OC(F)(F)F` [Example 20, N-{5-[4-(cyclopropylcarbonyl)-piperazin-1-yl]-1,3,4-thiadiazol-2-yl}-3-[(morpholin-4-ylacetyl)amino]-4-(trifluoromethoxy)benzamide]: the IC50 was 3.91 µM in assay [1] and not below 5e-05 M in assay [2].
